Data from US11453669B2, “Polycyclic pyridone derivative” (Shionogi & Co., Ltd., priority 2018, dated 2022).
Where two headings read alike, the source gives them in different places.

Experiments:
[1] = test system: HIV; assay: Anti-HIV activity (MT-4 cells, MTT); type: cell-based; conditions: Human immunodeficiency virus 1, MT4, 96 h, read-out: EC50_nM (50% HIV inhibitory concentration)
Description: Serial dilutions of a test sample were prepared in a 96-well microplate (50 μL/well). 2.5×10^5 cells/mL of an MT-4 cell suspension was dispensed at 100 μL/well to the plate containing the test sample. Then, an HIV virus solution was dispensed at 50 μL/well. The plate was mixed with a plate mixer and cultured for 4 days in a CO2 incubator. An MTT (3-(4,5-dimethylthiazol-2-yl)-2,5-diphenyltetrazolium bromide) solution was dispensed at 30 μL/well. The plate was reacted for 1 hour in a CO2 incubator. 150 μL of the supernatant was removed from each well so as not to take up the cells. 150 μL of a cell lysis solution was added to each well and well mixed with a plate mixer until the cells were completely lysed. The absorbance of the mixed plate was measured at two wavelengths of 560 nm and 690 nm using a microplate reader.

[2] = type: in vitro ADME; conditions: human, 30 min, 0.5 μmol/L, pH 7.4
Description: Using commercially available pooled human liver microsomes, a compound of the present invention was reacted for a constant time, and a remaining rate was calculated by comparing a reacted sample and an unreacted sample, thereby, a degree at which the compound of the present invention was metabolized in liver was assessed.
A reaction was performed (oxidative reaction) at 37° C. for 0 minute or 30 minutes in the presence of 1 mmol/L NADPH in 0.2 mL of a buffer solution (50 mmol/L Tris-HCl pH 7.4, 150 mmol/L potassium chloride, 10 mmol/L magnesium chloride) containing 0.5 mg protein/mL of human liver microsomes. After the reaction, 50 μL of the reaction solution was added to 100 μL of a solution of methanol/acetonitrile=1/1 (v/v), and the mixture was mixed and centrifuged at 3000 rpm for 15 minutes. The compound of the present invention in the centrifugation supernatant was quantified by LC/MS/MS or solid-phase extraction (SPE)/MS. The amount of the compound of the present invention remaining after the reaction was calculated with the amount of the compound at 0 minutes of the reaction defined as 100%.

[3] = test system: HIV mutant strain 1 (E138K/G140S/Q148H/N155H); type: cell-based; conditions: FC=EC50 of the mutant strain/EC50 of the wild strain, HeLa-CD4 cells
Description: (§1) Serial dilutions of a test sample were prepared in a 96-well microplate (50 μL/well). 2.5×10^5 cells/mL of a HeLa-CD4 cell suspension was dispensed at 100 μL/well to the plate containing the test sample. Then, an HIV virus solution (wild strain and mutant strain) was dispensed at 50 μL/well. The plate was mixed with a plate mixer and cultured for 3 days in a CO2 incubator. The culture supernatant in each well was removed by suction. A cell lysis buffer in a reporter assay kit was dispensed at 100 μL/well, and the plate was frozen in a freezer (−80° C.). The plate frozen in a freezer was thawed at room temperature, then mixed with a plate mixer, and centrifuged at 1,200 rpm for 5 minutes. The supernatant of each well was dispensed at 20 μL/well to a 96-well microplate (BLACK). A chemiluminescent in the reporter assay kit reagent was dispensed at 100 μL/well and reacted at room temperature for approximately 1 hour. Then, luminescence intensity was measured using MicroBeta TRILUX.

[4] = test system: HIV mutant strain 2 (E92Q/E138T/G140S/Q148H); type: cell-based; conditions: FC=EC50 of the mutant strain/EC50 of the wild strain, HeLa-CD4 cells
Description: as §1

[5] = MT-4 cells, cultured 4 days, MTT

SMILES	EC50 [1, 5] [nM]	also measured
CN1C(=O)c2c(O)c(=O)c(-c3nnc(Cc4c(F)cc(F)cc4F)s3)cn2N2CCOC[C@@H]12 [II-012]	0.25	–
CCN1C(=O)c2c(O)c(=O)c(-c3nnc(Cc4c(F)cc(F)cc4F)s3)cn2N2C[C@@H](C)CC[C@@H]12 [II-068]	–	EC50 [1]: 1.2 nM; residual rate [2]: 91.3; FC (fold change) for mutant strain 1 [3]: 3.5; FC (fold change) for mutant strain 2 [4]: 4.6
CN1C(=O)c2c(O)c(=O)c(-c3nnc(Cc4cccc(Cl)c4F)s3)cn2N2CCOC[C@@H]12 [II-069]	–	EC50 [1]: 0.24 nM; residual rate [2]: 102; FC (fold change) for mutant strain 1 [3]: 30; FC (fold change) for mutant strain 2 [4]: 25
CN1C(=O)c2c(O)c(=O)c(-c3nnc(Cc4c(F)cc(F)cc4F)s3)cn2N2C[C@H]3CC[C@H](O3)[C@H]12 [II-036]	2	–
CCN1C(=O)c2c(O)c(=O)c(-c3nnc(Cc4c(F)cc(F)cc4F)s3)cn2N2CC[C@H](C)[C@@H]12 [II-026]	0.39	–
CCN1C(=O)c2c(O)c(=O)c(-c3nnc(Cc4ccc(F)cc4F)s3)cn2N2C[C@H]3CC[C@H](O3)[C@H]12 [II-047]	1.4	–
CCN1C(=O)c2c(O)c(=O)c(-c3nnc(Cc4ccc(F)cc4F)s3)cn2N2CCOC[C@@H]12 [II-016]	0.19	–
CN1C(=O)c2c(O)c(=O)c(-c3nnc(Cc4ccc(F)cc4F)s3)cn2N2C[C@@H]3CC[C@@H](C3)[C@@H]12 [II-055]	–	EC50 [1]: 0.14 nM; residual rate [2]: 93.9; FC (fold change) for mutant strain 1 [3]: 15; FC (fold change) for mutant strain 2 [4]: 11
CCN1C(=O)c2c(O)c(=O)c(-c3cnn(Cc4ncc(Cl)cc4F)c3)cn2N2CCCC[C@H]12 [II-014]	61	–
CCN1C(=O)c2c(O)c(=O)c(-c3nnc(Cc4ccc(F)c(Cl)c4)s3)cn2N2CCCC[C@@H]12 [Compound I-010]	3.8	–
CN1C(=O)c2c(O)c(=O)c(-c3nnc(Cc4ccc(F)cc4F)s3)cn2N2CCOC[C@@H]12 [II-010]	–	EC50 [1]: 1.3 nM; residual rate [2]: 106; FC (fold change) for mutant strain 1 [3]: 25; FC (fold change) for mutant strain 2 [4]: 22
CN1C(=O)c2c(O)c(=O)c(-c3nnc(Cc4ccc(F)cc4F)s3)cn2N2CCOC[C@H]12 [II-009]	–	EC50 [1]: 1.3 nM
CCN1C(=O)c2c(O)c(=O)c(-c3nnc(Cc4c(F)cc(F)cc4F)s3)cn2N2C[C@@H](C)C[C@@H]12 [II-027]	–	EC50 [1]: 1.9 nM; residual rate [2]: 90.5; FC (fold change) for mutant strain 1 [3]: 4.7; FC (fold change) for mutant strain 2 [4]: 7
CN1C(=O)c2c(O)c(=O)c(-c3nnc(Cc4c(F)cc(F)cc4F)s3)cn2N2CCCC[C@@H]12 [II-004]	0.7	–
C[C@H]1CC[C@H]2N(C)C(=O)c3c(O)c(=O)c(-c4nnc(Cc5c(F)cc(F)cc5F)s4)cn3N2C1 [II-042]	0.2	–
CN1C(=O)c2c(O)c(=O)c(-c3nnc(Cc4cccc(Cl)c4F)s3)cn2N2CCCC[C@H]12 [II-001]	4.3	–
CN1C(=O)c2c(O)c(=O)c(-c3nnc(Cc4ccc(F)cc4F)s3)cn2N2Cc3ccccc3[C@@H]12 [II-040]	1.3	–
CCN1C(=O)c2c(O)c(=O)c(-c3nnc(Cc4c(F)cc(F)cc4F)s3)cn2N2CCOC[C@H]12 [II-017]	1.1	–
CCN1C(=O)c2c(O)c(=O)c(-c3nnc(Cc4ccc(F)c(F)c4F)s3)cn2N2CCCC[C@H]12 [Compound I-013]	3	–
CN1C(=O)c2c(O)c(=O)c(-c3nnc(Cc4ccc(F)cc4F)s3)cn2N2Cc3ccccc3[C@H]12 [II-039]	3.8	–
CCN1C(=O)c2c(O)c(=O)c(-c3nnc(Cc4ccc(F)cc4F)s3)cn2N2[C@H](C)CCC[C@@H]12 [II-066]	1.1	–
CCN1C(=O)c2c(O)c(=O)c(-c3ncc(Cc4ccc(F)cc4F)s3)cn2N2CCCC[C@H]12 [Compound I-003]	7.1	–
CCN1C(=O)c2c(O)c(=O)c(-c3nnc(Cc4cccc(Cl)c4F)s3)cn2N2CCCC[C@@H]12 [Compound I-006]	2.7	–
CN1C(=O)c2c(O)c(=O)c(-c3nnc(Cc4c(F)cc(F)cc4F)s3)cn2N2C[C@@H]3CC[C@@H](O3)[C@@H]12 [II-035]	0.28	–
CC(C)N1C(=O)c2c(O)c(=O)c(-c3nnc(Cc4c(F)cc(F)cc4F)s3)cn2N2CC[C@@H](C)C[C@@H]12 [II-060]	2.7	–

SMILES	EC50 [1, 5] [nM]	also measured
CCN1C(=O)c2c(O)c(=O)c(-c3cnn(Cc4cccc(Cl)c4F)c3)cn2N2CCCC[C@H]12 [II-007]	14	–
C[C@@H]1CC[C@@H]2N(C)C(=O)c3c(O)c(=O)c(-c4nnc(Cc5ccc(F)cc5F)s4)cn3N12 [II-028]	0.13	–
CCN1C(=O)c2c(O)c(=O)c(-c3nnc(Cc4ccc(F)c(Cl)c4)s3)cn2N2CCCC[C@H]12 [Compound I-009]	7.2	–
CCN1C(=O)c2c(O)c(=O)c(-c3nnc(Cc4cccc(Cl)c4F)s3)cn2N2CCCC[C@H]12 [Compound I-005]	3.2	–
CCN1C(=O)c2c(O)c(=O)c(-c3nnc(Cc4c(F)cc(F)cc4F)s3)cn2N2C[C@@H](C)C[C@H]12 [II-025]	0.9	–
C[C@@H]1CCN2[C@@H](C1)N(C)C(=O)c1c(O)c(=O)c(-c3nnc(Cc4ccc(F)cc4F)s3)cn12 [II-034]	0.13	–
CCN1C(=O)c2c(O)c(=O)c(-c3nnc(Cc4ccc(F)c(F)c4F)s3)cn2N2CCCC[C@@H]12 [Compound I-014]	1.3	–
CCN1C(=O)c2c(O)c(=O)c(-c3nnc(Cc4ccc(F)cc4F)s3)cn2N2CCOC[C@H]12 [II-015]	1.6	–
C[C@@H]1CC[C@@H]2N(C)C(=O)c3c(O)c(=O)c(-c4nnc(Cc5c(F)cc(F)cc5F)s4)cn3N12 [II-030]	1.4	–
CCN1C(=O)c2c(O)c(=O)c(-c3nnc(Cc4cc(F)c(F)cc4F)s3)cn2N2CCCC[C@H]12 [Compound I-011]	5	–
CCN1C(=O)c2c(O)c(=O)c(-c3nnc(Cc4ccc(F)cc4F)s3)cn2N2CC[C@H](C)[C@@H]12 [II-022]	0.67	–
CCN1C(=O)c2c(O)c(=O)c(-c3cnn(Cc4ccc(F)cc4F)c3)cn2N2CCCC[C@H]12 [II-005]	9.7	–
CCN1C(=O)c2c(O)c(=O)c(-c3nnc(Cc4c(F)cc(F)cc4F)s3)cn2N2C[C@H]3CC[C@H](O3)[C@H]12 [II-045]	2	–
C[C@@H]1CC[C@H]2N(C)C(=O)c3c(O)c(=O)c(-c4nnc(Cc5c(F)cc(F)cc5F)s4)cn3N12 [II-031]	0.13	–
CCN1C(=O)c2c(O)c(=O)c(-c3nnc(Cc4ccc(F)cc4)s3)cn2N2CCOC[C@@H]12 [II-020]	0.7	–
CN1C(=O)c2c(O)c(=O)c(-c3nnc(Cc4cccc(Cl)c4F)s3)cn2N2CCCC[C@@H]12 [II-002]	1.6	–
CC(C)N1C(=O)c2c(O)c(=O)c(-c3nnc(Cc4c(F)cc(F)cc4F)s3)cn2N2C[C@H]3CC[C@H](O3)C12 (some centres unmarked) [II-053]	1.3	–
C[C@H]1CCN2[C@@H](C1)N(C)C(=O)c1c(O)c(=O)c(-c3nnc(Cc4ccc(F)cc4F)s3)cn12 [II-032]	0.13	–
CCN1C(=O)c2c(O)c(=O)c(-c3nnc(Cc4ccc(F)cc4)s3)cn2N2C[C@H]3CC[C@H](O3)[C@H]12 [II-049]	1.6	–
CCN1C(=O)c2c(O)c(=O)c(-c3nnc(Cc4c(F)cc(F)cc4F)s3)cn2N2CCCC[C@H]12 [Compound I-007]	2.2	–
CC(C)N1C(=O)c2c(O)c(=O)c(-c3nnc(Cc4ccc(F)cc4F)s3)cn2N2CC[C@@H](C)C[C@@H]12 [II-059]	1	–
CCN1C(=O)c2c(O)c(=O)c(-c3nnc(Cc4ccc(F)cc4F)s3)cn2N2C[C@@H](C)C[C@H]12 [II-021]	2.6	–
CCN1C(=O)c2c(O)c(=O)c(-c3cnn(Cc4cccc(Cl)c4F)c3)cn2N2CCCC[C@@H]12 [II-008]	4.5	–
CN1C(=O)c2c(O)c(=O)c(-c3nnc(Cc4c(F)cc(F)cc4F)s3)cn2N2CCOC[C@H]12 [II-011]	0.5	–
CCN1C(=O)c2c(O)c(=O)c(-c3nnc(Cc4ccc(F)cc4)s3)cn2N2CCOC[C@H]12 [II-019]	2.1	–
